Converted amounts (≈) assume the structure as drawn. Read-outs that look alike come from different tables or passages of the source.
Legend:
Type in all cases: physicochemical
[1] = Solubility studies (excess drug, agitation at least 24 h, HPLC)
Protocol: Solubility of piperlongumine was determined in purified water and the following cosolvent and surfactant systems: 5, 15, 30% (v/v) acetonitrile; 5, 15, 30, 50, 100% (v/v) of polyethylene glycol 400 (PEG 400), ethanol, glycerin and propylene glycol; 3, 7, 10% (w/v) of Tween 80; 2.5, 5, 10% (w/v) of Cremophor Rh 40; and a solution composition of 10% ethanol: 40% PEG 400 (w/v). Additionally, the complexing agents, sulfobutyl ether β-cyclodextrin sodium salt and hydroxyl-propyl-β-cyclodextrin, were examined at concentrations of 5, 10, 20, 40% (w/v).
An excess quantity of raw drug crystals were placed in a known volume of each medium in closed, light protected glass vials and allowed to agitate for at least 24 hours at ambient temperature. Samples were visually inspected to ensure that solid drug was still in excess and then filtered through a 0.2 μm PTFE filter. The filtrate was assayed via the previously described HPLC method and the concentration of piperlongumine in solution was determined.

[2] = Photo-stability (UV sunlamps, 165 min); conditions: for Photo-degradation: UV exposure
Protocol: Photo-stability was examined by preparing four groups of samples, each containing a triplicate sample and one reference (protected from light). These groups covered high and low drug concentrations in the following compositions:
• 150 μg/ml of drug in 100% acetonitrile • 150 μg/ml of drug in 15:85 acetonitrile: water • 30 μg/ml of drug in 100% acetonitrile • 30 μg/ml of drug in 15:85 acetonitrile: water
Each sample was prepared in a transparent glass vial and closed without any entrapped air. A reference sample was utilized for each group by covering one of the vials with aluminum foil to protect it from the light exposure. All vials were exposed for 165 min using Sun 340 sunlamps yielding UV emission between 295 and 390 nm to include UVA and UVB wavelengths. Samples were placed in an area where the UV intensity was measured to be 1.57 mw/cm^2. After the exposure time, samples were analyzed using the HPLC method described previously.

[3] = Solubility studies (excess drug, agitation at least 24 h, HPLC); remark: listed apart in the source

**Q.** For `COc1cc(/C=C/C(=O)N2CCC=CC2=O)cc(OC)c1OC` [piperlongumine, 1-[(2E)-3-(3,4,5-trimethoxyphenyl)prop-2-enoyl]-1,2,5,6-tetrahydropyridin-2-one], which solubility ([1]; 10% (w/v) Cremophor Rh 40, aqueous with cosolvent or surfactant or cyclodextrin, thermodynamic from solid, 10% (w/v) Cremophore Rh 40, read-out: Solubility) is on record?
**A.** Its solubility is roughly 550 µg/mL (≈ 1.73 mM).

**Q.** What about the solubility ([1]; 10% (w/v) Tween 80, aqueous with cosolvent or surfactant or cyclodextrin, thermodynamic from solid, 10% Tween 80, read-out: Solubility) of the same compound?
**A.** Its solubility is roughly 700 µg/mL (≈ 2.21 mM).

**Q.** What about the solubility ([1]; 10% ethanol: 40% PEG 400 (w/v), aqueous with cosolvent or surfactant or cyclodextrin, thermodynamic from solid, read-out: Solubility) of the same compound?
**A.** The solubility was roughly 1700 µg/mL (≈ 5.36 mM).

**Q.** What about the solubility ([1]; 10% ethanol: 40% PEG 400 (w/v), read-out: Solubility) of the same compound?
**A.** The solubility was 1000 µg/mL (≈ 3.15 mM).

**Q.** And the solubility ([1]; 20% (w/v) hydroxypropyl-β-cyclodextrin, aqueous with cosolvent or surfactant or cyclodextrin, thermodynamic from solid, read-out: Solubility)?
**A.** The solubility was roughly 1000 µg/mL (≈ 3.15 mM).

**Q.** What about the solubility ([1]; 20% (w/v) hydroxypropyl-β-cyclodextrin, read-out: Solubility) of the same compound?
**A.** The solubility was 1000 µg/mL (≈ 3.15 mM).

**Q.** And the solubility ([1]; 20% (w/v) sulfobutyl ether β-cyclodextrin, aqueous with cosolvent or surfactant or cyclodextrin, thermodynamic from solid, read-out: Solubility)?
**A.** Its solubility is roughly 1000 µg/mL (≈ 3.15 mM).

**Q.** What about the solubility ([1]; 30% (v/v) acetonitrile, aqueous with cosolvent or surfactant or cyclodextrin, thermodynamic from solid, 30% acetonitrile, read-out: Solubility) of the same compound?
**A.** Its solubility is 1600 µg/mL (≈ 5.04 mM).

**Q.** And the “Fold improvement in solubility” value ([1]; 30% acetonitrile vs water)?
**A.** The value was 63 fold.

**Q.** And the solubility ([1]; 50% (v/v) PEG 400, aqueous with cosolvent or surfactant or cyclodextrin, thermodynamic from solid, 50% PEG 400, read-out: Solubility)?
**A.** Its solubility is roughly 1100 µg/mL (≈ 3.47 mM).

**Q.** And the solubility ([1]; 50% (v/v) ethanol, aqueous with cosolvent or surfactant or cyclodextrin, thermodynamic from solid, 50% ethanol, read-out: Solubility)?
**A.** The solubility was roughly 2300 µg/mL (≈ 7.25 mM).

**Q.** What about the solubility ([1]; 100% PEG 400, organic solvent or mixture, thermodynamic from solid, pure PEG 400, read-out: Solubility) of the same compound?
**A.** Its solubility is roughly 22000 µg/mL (≈ 69.3 mM).

**Q.** What about the solubility ([1]; 100% ethanol, organic solvent or mixture, thermodynamic from solid, pure ethanol, read-out: Solubility) of the same compound?
**A.** The solubility was roughly 11000 µg/mL (≈ 34.7 mM).

**Q.** And the Concentrations afforded ([1]; cosolvents and cyclodextrins)?
**A.** Its Concentrations afforded is no less than 1000 µg/mL.

**Q.** What about the solubility ([1]; purified water, ambient temperature, read-out: Solubility in water (intrinsic solubility)) of the same compound?
**A.** Its solubility is roughly 26 µg/mL (≈ 0.0819 mM).

**Q.** And the solubility ([1]; thermodynamic from solid, purified water, ambient temperature, read-out: Solubility in water (intrinsic solubility))?
**A.** Its solubility is 26 ± 2.9 µg/mL (≈ 0.0819 mM).

**Q.** What about the “Average % of drug remaining ± SD” value ([2]; 30 μg/ml, acetonitrile:water 15:85, UV 165 min) of the same compound?
**A.** Its value is 79.0 ± 0.1%.

**Q.** And the “Average % of drug remaining ± SD” value ([2]; 30 μg/ml, acetonitrile:water 100:00, UV 165 min)?
**A.** The value was 39.5 ± 0.03%.

**Q.** And the “Average % of drug remaining ± SD” value ([2]; 150 μg/ml, acetonitrile:water 15:85, UV 165 min)?
**A.** Its value is 82.3 ± 0.6%.

**Q.** And the “Average % of drug remaining ± SD” value ([2]; 150 μg/ml, acetonitrile:water 100:00, UV 165 min)?
**A.** Its value is 44.5 ± 0.2%.

**Q.** And the Photo-degradation ([2]; 15:85 acetonitrile: water)?
**A.** Its Photo-degradation is “approximately 20%”.

**Q.** And the “Concentration remaining of the initial concentration” value ([2]; light protected control samples, after exposure duration)?
**A.** Its value is 100%.

**Q.** What about the Photo-degradation ([2]; pure acetonitrile) of the same compound?
**A.** The Photo-degradation was 60%.

**Q.** And the “Photo-degradation upon exposure to an ultraviolet light source” value ([2]; qualitative)?
**A.** Its value is “marked photo-degradation”.

**Q.** What about the “Water solubility as a function of pH” value [3] of the same compound?
**A.** The value was “does not change as a function of pH”.
